Where two headings read alike, the source gives them in different places.
Test system: UISO-MeI-2 cells
Format: cell-based

Molecule	Effect on uptake of azurin in UISO-MeI-2 cells	Effect on uptake of azurin in UISO-MeI-2 cells (20 pM)
C=C1[C@@H](C)[C@H]2[C@H](Cc3ccccc3)NC(=O)[C@]23[C@H](OC(C)=O)/C=C/[C@@](C)(O)C(=O)[C@@H](C)C/C=C/[C@H]3[C@@H]1O [cytochalasin D]	significantly reduced	–
C[C@H]1CCC/C=C/[C@@H]2C[C@H](O)C[C@H]2[C@H](O)/C=C/C(=O)O1 [Brefeldin A]	no significant effect	–
carbonyl cyanide m-chlorophrnylhydrazone [CCCP]	–	significantly reduced
